# Key:
# Type in all cases: cell-based
# [1] = tested on: IL-1α; experiment: Inhibition of IL-1 production by stimulated human peripheral blood leukocytes in vitro
# [2] = tested on: IL-6; experiment: Inhibition of IL-6 production by stimulated human peripheral blood leukocytes in vitro
# Method: (§1) Test substances used in in vitro experiments were dissolved in dimethyl sulfoxide (DMSO) (Kemika, Croatia) at concentrations of 50 mM and 10 mM, and were further diluted to final concentrations of 50 μM and 10 μM in 1 mL Dulbecco's modified Eagle medium (DMEM) supplemented with 1% heat inactivated fetal bovine serum (FBS), 1% L-glutamine, 50 U/ml penicillin, 50 μg/ml streptomycin and 2.5 μg/mL Fungizone (amphotericin B). Media and all media supplements were purchased from Gibco, Australia, except the FBS was purchased from Sigma, USA.
# (§2) Peripheral blood leukocytes (PBL) were obtained from venous blood of healthy volunteers by sedimentation on 2% dextran T-500 (Amersham Biosciences, USA) and subsequent centrifugations of leukocyte rich plasma.
# (§3) Peripheral blood leukocytes (PBL), isolated as described above, were seeded in a 48-well plate at a concentration of 3 to 5×10^6 cell per well in culture medium consisting of RPMI 1640 medium (Institute of Immunology, Croatia) supplemented with 10% heat-inactivated fetal calf serum (FCS, Biowhittaker, USA), 100 U/ml penicillin (Gibco, Australia), 100 μg/ml streptomycin (Gibco, Australia) and 2 mM L-glutamine (Gibco, Australia), and preincubated with the test compounds for 2 h at 37° C., in an atmosphere of 5% CO2, and 90% humidity. Then, stimuli (Sigma, USA) were added to a final concentration of 2 μg/mL lipopolysaccharide (LPS), 1 μg/mL phorbol 12-myristate 13-acetate (PMA) or 120 μg/mL zymosan. Samples were incubated overnight under conditions described above. At the end of incubation, the supernatants were transferred to eppendorf tubes and centrifuged for 10 min at 1500×g. Concentrations of human TNF-α, IL-1β, IL-6 and IL-8 were determined in cell supernatants by sandwich ELISA, using capture and detection antibodies (R&D Systems, Minneapolis, Minn.) according to the manufacturer's recommendations.
# (§4) Inhibition (as percentage) was calculated using the following formula: % inhibition=(1−concentration of cytokines in sample/concentration of cytokines in positive control)×100.
# (§5) The positive control refers to LPS-, PMA- or zymosan-stimulated samples that were not preincubated with test compounds.
# [3] = tested on: TNF-α; experiment: Inhibition of TNF-α production by stimulated human peripheral blood leukocytes in vitro
# Method: as §1, §2, §3, §4, §5
# [4] = tested on: IL-8; experiment: Inhibition of IL-8 production by stimulated human peripheral blood leukocytes in vitro
# Method: as §1, §2, §3, §4, §5
structure (smiles),measurement,setting,value
"CCC1OC(=O)C(C)C(OC2CC(C)(OC)C(OCCCN3CCN(CCN(CC)CC)CC3)C(C)O2)C(C)C(OC2OC(C)CC(N(C)C)C2O)C(C)(O)CC(C)CN(C)C(C)C2OC(=O)OC12C (stereo not drawn) [Example 97, 4″-O-{3-[4-(2-Diethylamino-ethyl)-piperazin-1-yl]-propyl}azithromycin 11,12-cyclic carbonate]",Percentage of inhibition of IL-1α production,"[1]; 10 μM, LPS-stimulated PBL",0%
same,Percentage of inhibition of IL-1α production,"[1]; 10 μM, PMA-stimulated PBL",57%
same,Percentage of inhibition of IL-1α production,"[1]; 10 μM, zymosan-stimulated PBL",49%
same,Percentage of inhibition of IL-1α production,"[1]; 50 μM, LPS-stimulated PBL",0%
same,Percentage of inhibition of IL-1α production,"[1]; 50 μM, PMA-stimulated PBL",79%
same,Percentage of inhibition of IL-1α production,"[1]; 50 μM, zymosan-stimulated PBL",34%
same,Percentage of inhibition of IL-6 production,"[2]; 10 μM, LPS-stimulated PBL",0%
same,Percentage of inhibition of IL-6 production,"[2]; 10 μM, PMA-stimulated PBL",32%
same,Percentage of inhibition of IL-6 production,"[2]; 10 μM, zymosan-stimulated PBL",9%
same,Percentage of inhibition of IL-6 production,"[2]; 50 μM, LPS-stimulated PBL",14%
same,Percentage of inhibition of IL-6 production,"[2]; 50 μM, PMA-stimulated PBL",51%
same,Percentage of inhibition of IL-6 production,"[2]; 50 μM, zymosan-stimulated PBL",56%
same,Percentage of inhibition of TNF-α production,"[3]; 10 μM, LPS-stimulated PBL",0%
same,Percentage of inhibition of TNF-α production,"[3]; 10 μM, PMA-stimulated PBL",31%
same,Percentage of inhibition of TNF-α production,"[3]; 10 μM, zymosan-stimulated PBL",43%
same,Percentage of inhibition of TNF-α production,"[3]; 50 μM, LPS-stimulated PBL",62%
same,Percentage of inhibition of TNF-α production,"[3]; 50 μM, PMA-stimulated PBL",57%
same,Percentage of inhibition of TNF-α production,"[3]; 50 μM, zymosan-stimulated PBL",69%
same,Percentage of inhibition of IL-8 production,"[4]; 10 μM, LPS-stimulated PBL",0%
same,Percentage of inhibition of IL-8 production,"[4]; 10 μM, PMA-stimulated PBL",4%
same,Percentage of inhibition of IL-8 production,"[4]; 10 μM, zymosan-stimulated PBL",10%
same,Percentage of inhibition of IL-8 production,"[4]; 50 μM, LPS-stimulated PBL",23%
same,Percentage of inhibition of IL-8 production,"[4]; 50 μM, PMA-stimulated PBL",29%
same,Percentage of inhibition of IL-8 production,"[4]; 50 μM, zymosan-stimulated PBL",34%
"CCC(=O)N(C)[C@H]1C[C@@H](C)O[C@@H](O[C@@H]2[C@@H](C)[C@H](O[C@H]3C[C@@](C)(OC)[C@@H](OC(=O)CCN(CC)CC)[C@H](C)O3)[C@@H](C)C(=O)O[C@H](CC)[C@@](C)(O)[C@H](O)[C@@H](C)NC(=O)[C@H](C)C[C@@]2(C)OC)[C@@H]1O [Example 63, 3′-N-methyl-3′-N-propionyl-4″-O-(3-diethylaminopropionyl)-6-O-methyl-9a-aza-9a-homoerythromycin A]",Percentage of inhibition of IL-1α production,"[1]; 10 μM, LPS-stimulated PBL",59%
same,Percentage of inhibition of IL-1α production,"[1]; 10 μM, PMA-stimulated PBL",52%
same,Percentage of inhibition of IL-1α production,"[1]; 10 μM, zymosan-stimulated PBL",45%
same,Percentage of inhibition of IL-1α production,"[1]; 50 μM, LPS-stimulated PBL",89%
same,Percentage of inhibition of IL-1α production,"[1]; 50 μM, PMA-stimulated PBL",81%
same,Percentage of inhibition of IL-1α production,"[1]; 50 μM, zymosan-stimulated PBL",100%
same,Percentage of inhibition of IL-6 production,"[2]; 10 μM, LPS-stimulated PBL",8%
same,Percentage of inhibition of IL-6 production,"[2]; 10 μM, PMA-stimulated PBL",24%
same,Percentage of inhibition of IL-6 production,"[2]; 10 μM, zymosan-stimulated PBL",0%
same,Percentage of inhibition of IL-6 production,"[2]; 50 μM, LPS-stimulated PBL",60%
same,Percentage of inhibition of IL-6 production,"[2]; 50 μM, PMA-stimulated PBL",62%
same,Percentage of inhibition of IL-6 production,"[2]; 50 μM, zymosan-stimulated PBL",90%
same,Percentage of inhibition of TNF-α production,"[3]; 10 μM, LPS-stimulated PBL",0%
same,Percentage of inhibition of TNF-α production,"[3]; 10 μM, PMA-stimulated PBL",21%
same,Percentage of inhibition of TNF-α production,"[3]; 10 μM, zymosan-stimulated PBL",0%
same,Percentage of inhibition of TNF-α production,"[3]; 50 μM, LPS-stimulated PBL",69%
same,Percentage of inhibition of TNF-α production,"[3]; 50 μM, PMA-stimulated PBL",73%
same,Percentage of inhibition of TNF-α production,"[3]; 50 μM, zymosan-stimulated PBL",87%
same,Percentage of inhibition of IL-8 production,"[4]; 10 μM, LPS-stimulated PBL",0%
same,Percentage of inhibition of IL-8 production,"[4]; 10 μM, PMA-stimulated PBL",0%
same,Percentage of inhibition of IL-8 production,"[4]; 10 μM, zymosan-stimulated PBL",0%
same,Percentage of inhibition of IL-8 production,"[4]; 50 μM, LPS-stimulated PBL",36%
same,Percentage of inhibition of IL-8 production,"[4]; 50 μM, PMA-stimulated PBL",3%
same,Percentage of inhibition of IL-8 production,"[4]; 50 μM, zymosan-stimulated PBL",44%

# Reference: US8080529B2, “Macrolides with anti-inflammatory activity” (Glaxo Group Limited, priority 2005, dated 2011)
